Assay [1] can be described thus: inhibition of PEG-3 promoter-driven reporter – cell-based, HeLa, luciferase, CREF/GAPDH counter-screen panel, dose response (AID 624167). To be noted: CREF/GAPDH counter-screens; GAPDH; mean of runs. (A counterscreen serves to expose hits that act by an unwanted route or on another target.)
For another assay, the system named is GAPDH. The description is as above. To be noted: CREF/GAPDH counter-screens.
For assay [2], the target named is PEG-3 (UniProt Q6IN02). The assay is described as above. Conditions: HeLa PEG-Prom luciferase reporter, overnight, CREF/GAPDH counter-screens, mean of runs.
Assay [3] deals with PEG-3. Described as above. To be noted: HeLa PEG-Prom luciferase reporter, overnight, CREF/GAPDH counter-screens.
The next assay has as its system Rat fibroblasts (CREF). Described as above. To be noted: CREF/GAPDH counter-screens.
The mark [4] stands for this setting: run 1, dose range 1, individual replicate IC50 per panel.
Where [5] appears, read: run 2, dose range 1, individual replicate IC50 per panel.

Each structure is given as a SMILES string. The source made the active and inactive calls.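 How the source made its calls: active means mean IC50 for reducing PEG3 promoter reporter signal at or below a set limit, with IC50 above the limit in both counter screens; inactive means the rest, including counter screen hits.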

PEG-3 (UniProt Q6IN02), sequence (Q6IN02 whole entry, looked up): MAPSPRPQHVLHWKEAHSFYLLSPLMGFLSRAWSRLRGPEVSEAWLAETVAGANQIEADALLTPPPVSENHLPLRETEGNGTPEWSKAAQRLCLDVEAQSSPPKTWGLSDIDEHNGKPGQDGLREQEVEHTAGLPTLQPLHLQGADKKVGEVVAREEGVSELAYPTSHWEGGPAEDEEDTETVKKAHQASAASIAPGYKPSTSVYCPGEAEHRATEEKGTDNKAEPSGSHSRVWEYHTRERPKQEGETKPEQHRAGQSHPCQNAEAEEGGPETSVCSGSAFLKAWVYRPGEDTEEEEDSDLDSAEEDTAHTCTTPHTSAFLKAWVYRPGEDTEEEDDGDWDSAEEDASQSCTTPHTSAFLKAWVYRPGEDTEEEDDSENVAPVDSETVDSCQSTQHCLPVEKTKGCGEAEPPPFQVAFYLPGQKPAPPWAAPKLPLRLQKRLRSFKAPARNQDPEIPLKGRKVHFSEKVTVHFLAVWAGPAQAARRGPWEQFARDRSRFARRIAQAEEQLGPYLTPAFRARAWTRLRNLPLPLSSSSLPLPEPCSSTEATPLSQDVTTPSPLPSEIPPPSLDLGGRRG

For orientation: IC50 means the concentration at which inhibition is half-maximal. In the case of `CCCCCCN1C=C/C(=C\C=C(C#N)C#N)c2ccccc21`, in assay [1], the IC50 entry was “inactive”. For the same compound, the IC50 was 1.24 µM with GAPDH (setting [4]); above 100 µM with GAPDH (setting [5]); 10.2 µM on PEG-3 [2]; 13.4 µM in the assay with PEG-3 [3] (setting [4]); 7.03 µM with PEG-3 [3] (setting [5]); 55.3 µM (inactive) in the assay on Rat fibroblasts (CREF) (mean of runs). The figures for the IC50 with Rat fibroblasts (CREF) (setting [4]) and in the assay with Rat fibroblasts (CREF) (setting [5]) were above 100 µM and 10.7 µM, respectively.
As for `CCOC(=O)c1c(SCCN2CCCCC2)n(-c2ccccc2)c(=S)n(-c2ccccc2)c1=O`, the IC50 was 18.8 µM in assay [1]; 18.8 µM in the assay with GAPDH (setting [4]); 18.8 µM in the assay on GAPDH (setting [5]); 7.28 µM on PEG-3 [2]; 10.1 µM in the assay on PEG-3 [3] (setting [4]); 4.4 µM in the assay on PEG-3 [3] (setting [5]). The values for the IC50 in the assay on Rat fibroblasts (CREF) (mean of runs), in the assay on Rat fibroblasts (CREF) (setting [4]) and in the assay on Rat fibroblasts (CREF) (setting [5]) were 13.6 µM, 12.9 µM and 14.4 µM, respectively.
With `C=CCn1c(C)cc(C(=O)COc2ccc(C)nc2[N+](=O)[O-])c1C`, the IC50 in assay [1] was 24 µM; with GAPDH (setting [4]), 8.8 µM; in the assay on GAPDH (setting [5]), 39.1 µM; on PEG-3 [2] it was 1.4 µM; in the assay on PEG-3 [3] (setting [4]) it was 1.55 µM; in the assay on PEG-3 [3] (setting [5]), 1.26 µM. In addition, the IC50 in the assay on Rat fibroblasts (CREF) (mean of runs) was > 100 µM (inactive); in the assay on Rat fibroblasts (CREF) (setting [4]) it was above 100 µM; in the assay with Rat fibroblasts (CREF) (setting [5]), above 100 µM.
On to `O=C(CCl)N1c2ccccc2Sc2ccc3ccccc3c21`, for which the IC50 in assay [1] is 25.1 µM; with GAPDH (setting [4]) it was 26.7 µM; in the assay with GAPDH (setting [5]), 23.4 µM; at PEG-3 [2] it was 8.68 µM; in the assay with PEG-3 [3] (setting [4]), 12.2 µM; with PEG-3 [3] (setting [5]), 5.18 µM. Further, the figures for the IC50 in the assay on Rat fibroblasts (CREF) (mean of runs), in the assay on Rat fibroblasts (CREF) (setting [4]) and in the assay with Rat fibroblasts (CREF) (setting [5]) were 26.3 µM, 24.5 µM and 28.1 µM, respectively.
With `CN(C)c1c([N+](=O)[O-])cc(N2C(=O)C=CC2=O)cc1[N+](=O)[O-]`, the IC50 in assay [1] is 23.6 µM; in the assay with GAPDH (setting [4]), 24.6 µM; with GAPDH (setting [5]), 22.7 µM; at PEG-3 [2], 6.53 µM; with PEG-3 [3] (setting [4]), 7.49 µM; in the assay on PEG-3 [3] (setting [5]), 5.58 µM. Moreover, the IC50 was 14 µM in the assay with Rat fibroblasts (CREF) (mean of runs), 10.7 µM in the assay on Rat fibroblasts (CREF) (setting [4]) and 17.3 µM in the assay on Rat fibroblasts (CREF) (setting [5]).
For the compound `C=C1CC2(OC1=O)c1ccccc1CCc1ccccc12`, the IC50 in assay [1] is 13.8 µM; in the assay with GAPDH (setting [4]), 15.2 µM; with GAPDH (setting [5]) it was 12.5 µM; on PEG-3 [2] it was 4.84 µM; in the assay on PEG-3 [3] (setting [4]), 5.7 µM; in the assay on PEG-3 [3] (setting [5]) it was 3.98 µM. Also, the IC50 in the assay on Rat fibroblasts (CREF) (mean of runs) is 7.93 µM; in the assay with Rat fibroblasts (CREF) (setting [4]) it was 7.58 µM; with Rat fibroblasts (CREF) (setting [5]), 8.28 µM.
On to `NC(C(=O)O)C1ON=C(Cl)C1O` (centres undefined), for which the 50% inhibitory concentration (IC50) in assay [1] is 2.86 µM; in the assay on GAPDH (setting [4]) it was 0.927 µM; in the assay with GAPDH (setting [5]), 4.8 µM; at PEG-3 [2] it was 0.703 µM; in the assay on PEG-3 [3] (setting [4]), 0.639 µM; in the assay on PEG-3 [3] (setting [5]), 0.767 µM. For the same compound, the IC50 in the assay with Rat fibroblasts (CREF) (mean of runs) was > 100 µM (inactive); in the assay with Rat fibroblasts (CREF) (setting [4]), above 100 µM; in the assay on Rat fibroblasts (CREF) (setting [5]), above 100 µM.
Regarding `Nc1nonc1-n1nnc(C(=O)N/N=C/c2cc(Br)ccc2O)c1CNc1ccccc1`, the IC50 result in assay [1] is “inactive”. For the same compound, the IC50 was 45.2 µM in the assay on GAPDH (setting [4]); 59.3 µM with GAPDH (setting [5]); 10.9 µM at PEG-3 [2]; 4.19 µM in the assay on PEG-3 [3] (setting [4]); 17.6 µM with PEG-3 [3] (setting [5]); 77.8 µM (inactive) with Rat fibroblasts (CREF) (mean of runs). The IC50 was above 100 µM in the assay on Rat fibroblasts (CREF) (setting [4]) and 55.7 µM in the assay on Rat fibroblasts (CREF) (setting [5]).
As for `O=C(Nc1ccccc1)c1nc[nH]c1C(=O)NCCCCCCNC(=O)c1[nH]cnc1C(=O)Nc1ccccc1`, the IC50 result (in assay [1]; at PEG-3 [2]) was “inactive” throughout. Also, the IC50 in the assay with GAPDH (setting [4]) was above 100 µM; in the assay with GAPDH (setting [5]), 16 µM; in the assay on PEG-3 [3] (setting [4]), 2.4 µM; in the assay on PEG-3 [3] (setting [5]), above 100 µM; with Rat fibroblasts (CREF) (mean of runs), > 100 µM (inactive); in the assay with Rat fibroblasts (CREF) (setting [4]), above 100 µM. In the assay on Rat fibroblasts (CREF) (setting [5]), this compound showed an IC50 above 100 µM.
`CN(C)S(=O)(=O)c1ccc(-c2csc(N/N=C/c3ccc(O)cc3)n2)cc1`: the IC50 was 12.1 µM in assay [1]; 11.7 µM in the assay with GAPDH (setting [4]); 12.5 µM in the assay with GAPDH (setting [5]); 8.22 µM at PEG-3 [2]; 8.68 µM with PEG-3 [3] (setting [4]); 7.77 µM in the assay with PEG-3 [3] (setting [5]). For the same compound, the IC50 was 9.81 µM with Rat fibroblasts (CREF) (mean of runs), 9.26 µM in the assay with Rat fibroblasts (CREF) (setting [4]) and 10.4 µM in the assay on Rat fibroblasts (CREF) (setting [5]).
Regarding `CC(=O)OC1CC[C@]2(C#N)[C@H]3CC[C@]4(C)[C@H](C5C=CC(=O)O5)CCC4(O)C3CCC2(O)C1` (some centres undefined), the IC50 was 10.1 µM in assay [1]; 3.88 µM with GAPDH (setting [4]); 16.4 µM in the assay on GAPDH (setting [5]); 10.4 µM on PEG-3 [2]; 9.87 µM in the assay with PEG-3 [3] (setting [4]); 11 µM in the assay with PEG-3 [3] (setting [5]). Moreover, the IC50 in the assay on Rat fibroblasts (CREF) (mean of runs) was > 100 µM (inactive); in the assay with Rat fibroblasts (CREF) (setting [4]), above 100 µM; in the assay with Rat fibroblasts (CREF) (setting [5]), above 100 µM.
